The text below walks through data of ChEMBL document CHEMBL4706743, “2-Cyanoisonicotinamide Conjugation: A Facile Approach to Generate Potent Peptide Inhibitors of the Zika Virus Protease” (ACS Med Chem Lett, 2021).

This experiment is described as follows: Inhibition of Zika virus NS2B (45 to 96 residues)/N-terminal thrombin cleavage fused and His6-tagged NS3 (1 to 177 residues) protease expressed in Escherichia coli using Bz-Nle-Lys-Lys-Arg-AMC as substrate preincubated for 10 mins followed by substrate addition and measured for 5 mins by fluorophotometric analysis.

pKi: −log10 of the molar value.

Compound `N=C(N)NCCC[C@@H]1NC(=O)[C@H](CCCCN)NC(=O)CNC(=O)[C@@H]2CSC(=N2)c2cc(ccn2)C(=O)NCC[C@@H](C(N)=O)NC(=O)[C@H](CCCCN)NC1=O` showed a negative logarithm of the Ki (pKi) of 4.84.

Regarding `N=C(N)NCCC[C@@H]1NC(=O)[C@H](CCCCN)NC(=O)CNC(=O)[C@@H]2CSC(=N2)c2cc(ccn2)C(=O)NCCC[C@@H](C(N)=O)NC(=O)[C@H](CCCCN)NC1=O`, the pKi was 5.75.
